{"source": "patent US20230381139A1", "about": "“METHODS OF TREATING AND/OR PREVENTING ALZHEIMER’S DISEASE WITH R-CARVEDILOL” (priority 2020, published 2023)", "origin": "cited, not measured here", "system": "RyR2", "details": "cardiac cells; cited from earlier work", "data": [{"compound": "COc1ccccc1OCCNC[C@@H](O)COc1cccc2[nH]c3ccccc3c12", "note": "[R-carvedilol, R-(+)-carvedilol]", "values": [{"measurement": "RyR2 open time", "value": "shortened"}]}]}
